Measured values as given in ChEMBL document CHEMBL1157845, “Structure-activity relationship of new anti-tuberculosis agents derived from oxazoline and oxazole benzyl esters” (Eur J Med Chem, 2010).
Converted amounts (≈) assume the structure as drawn. The source made the active and inactive calls. No rule for the calls is given here.

What was measured:
[1] = test system: Mycobacterium tuberculosis; assay: Antimycobacterial activity against Mycobacterium tuberculosis Erdman infected in BALB/c mouse assessed as reduction of bacterial load at 200 mg/kg, po qd for 5 days per week administered 60 days after infection measured after 85 days post infection; assay type: functional, organism-based; design: dose 200 mg/kg
[2] = test system: Mycobacterium tuberculosis; assay: Antimycobacterial activity against Mycobacterium tuberculosis H37Rv ATCC 27294 in GAST medium after 1 week by microplate alamar blue assay; assay type: functional; details: H37Rv ATCC 27294, 168 h
[3] = test system: Mycobacterium tuberculosis; assay: Antimycobacterial activity against Mycobacterium tuberculosis H37Rv ATCC 27294 in GAS medium after 1 week by microplate alamar blue assay; assay type: functional; details: H37Rv ATCC 27294, 168 h

SMILES	Activity [1]	MIC [2] [µM]	MIC [3] [µM]
O=C(O)[C@@H]1COC(c2ccccc2O)=N1	inactive	> 128	> 128
COc1cccc(-c2nc(C(=O)OCc3ccccc3)co2)c1	inactive	3.76 (≈ 1.16 µg/mL)	6.04 (≈ 1.87 µg/mL)
O=C(OCc1ccccc1)c1coc(-c2cccnc2Sc2ccccc2)n1	inactive	> 128	8 (≈ 3.11 µg/mL)
O=C(OCc1ccccc1)[C@@H]1COC(c2cccc(F)c2)=N1	inactive	6.86 (≈ 2.05 µg/mL)	60.7 (≈ 18.2 µg/mL)
O=C(OCc1ccccc1)[C@@H]1COC(c2cncc(Br)c2)=N1	inactive	26.6 (≈ 9.61 µg/mL)	27.6 (≈ 9.97 µg/mL)
Cc1ccc(C2=N[C@H](C(=O)OCc3ccccc3)CO2)cn1	inactive	122 (≈ 36.2 µg/mL)	73 (≈ 21.6 µg/mL)
O=C(OCc1ccccc1)[C@@H]1COC(c2cccc(Br)c2)=N1	inactive	52.5 (≈ 18.9 µg/mL)	24.2 (≈ 8.72 µg/mL)
O=C(OCc1ccccc1)c1coc(-c2cccc(Cl)c2OCc2ccccc2)n1	inactive	> 128	5.4 (≈ 2.27 µg/mL)
O=C(OCc1ccccc1)c1coc(-c2ccc([N+](=O)[O-])cc2OCc2ccccc2)n1	inactive	> 128	> 128
COc1ccc(CC2=N[C@H](C(=O)OCc3ccccc3)CO2)cc1	inactive	> 128	> 128
COC(=O)[C@@H]1COC(c2cccc(Cl)c2)=N1	inactive	68.7 (≈ 16.5 µg/mL)	> 128
COc1ccccc1-c1nc(C(=O)OCc2ccccc2)co1	inactive	7.54 (≈ 2.33 µg/mL)	3.88 (≈ 1.2 µg/mL)
O=C(O)[C@@H]1COC(c2cccc(Cl)c2)=N1	inactive	106 (≈ 23.9 µg/mL)	> 128
COc1cccc(C2=N[C@H](C(=O)OCc3ccccc3)CO2)c1	inactive	42.5 (≈ 13.2 µg/mL)	24.8 (≈ 7.72 µg/mL)
N#Cc1cccc(C2=N[C@H](C(=O)OCc3ccccc3)CO2)c1	inactive	75.1 (≈ 23 µg/mL)	47.2 (≈ 14.5 µg/mL)
C[C@@H]1OC(c2ccccc2)=N[C@@H]1C(=O)O	inactive	> 128	> 128
COc1ccccc1C1=N[C@H](C(=O)OCc2ccccc2)CO1	inactive	29.2 (≈ 9.09 µg/mL)	37 (≈ 11.5 µg/mL)
O=C(O)[C@@H]1COC(c2ccccc2)=N1	inactive	> 128	> 128
Cc1ccc(C2=N[C@H](C(=O)OCc3ccccc3)CO2)cc1	inactive	27.3 (≈ 8.06 µg/mL)	15.5 (≈ 4.58 µg/mL)
CCCCOc1ccc(-c2nc(C(=O)OCc3ccccc3)co2)cc1	inactive	3.83 (≈ 1.35 µg/mL)	1.76 (≈ 0.618 µg/mL)
COC(=O)[C@@H]1COC(c2ccccc2O)=N1	inactive	> 128	> 128
O=C(OCc1ccccc1)[C@@H]1COC(c2cccc(Cl)c2OCc2ccccc2)=N1	inactive	34 (≈ 14.3 µg/mL)	6.3 (≈ 2.66 µg/mL)
O=C(OCc1ccccc1)[C@@H]1COC(c2ccc(F)cc2[N+](=O)[O-])=N1	inactive	40.4 (≈ 13.9 µg/mL)	30.7 (≈ 10.6 µg/mL)

SMILES	Activity [1]	MIC [2] [µM]	MIC [3] [µM]
COc1ccc(C2=N[C@H](C(=O)OCc3ccccc3)[C@H](C)O2)cc1	inactive	37.8 (≈ 12.3 µg/mL)	54.1 (≈ 17.6 µg/mL)
CCOc1ccc(C2=N[C@H](C(=O)OCc3ccccc3)CO2)cc1	inactive	30.5 (≈ 9.92 µg/mL)	60.6 (≈ 19.7 µg/mL)
O=C(OCc1ccccc1)c1coc(-c2cccnc2)n1	inactive	6.2 (≈ 1.74 µg/mL)	3.82 (≈ 1.07 µg/mL)
CCCOc1ccc(-c2nc(C(=O)OCc3ccccc3)co2)cc1	inactive	1.94 (≈ 0.655 µg/mL)	3.48 (≈ 1.17 µg/mL)
O=C(OCc1ccccc1)c1coc(-c2ccncc2)n1	inactive	6.1 (≈ 1.71 µg/mL)	1.42 (≈ 0.398 µg/mL)
O=C(OCc1ccccc1)c1coc(-c2ccc(OCc3ccccc3)c(F)c2)n1	inactive	3.86 (≈ 1.56 µg/mL)	3.03 (≈ 1.22 µg/mL)
C[C@@H]1OC(c2ccccc2OCc2ccccc2)=N[C@@H]1C(=O)OCc1ccccc1	inactive	> 128	> 128
COC(=O)[C@H]1N=C(c2ccccc2)O[C@H]1C	inactive	> 128	> 128
O=C(OCc1ccccc1)[C@@H]1COC(c2ccc(Cl)cc2)=N1	inactive	14.9 (≈ 4.7 µg/mL)	61 (≈ 19.3 µg/mL)
O=C(OCc1ccccc1)[C@@H]1COC(c2ccc(Br)nc2)=N1	inactive	21.1 (≈ 7.62 µg/mL)	22.9 (≈ 8.27 µg/mL)
CCOc1ccc(C2=N[C@H](C(=O)OCc3ccccc3)CO2)cc1F	inactive	3.91 (≈ 1.34 µg/mL)	50.5 (≈ 17.3 µg/mL)
O=C(OCc1ccccc1)[C@@H]1COC(c2ccc([N+](=O)[O-])cc2F)=N1	inactive	8.7 (≈ 3 µg/mL)	13 (≈ 4.48 µg/mL)
O=C(OCc1ccccc1)c1coc(-c2cccnc2S(=O)(=O)c2ccccc2)n1	inactive	> 128	66.2 (≈ 27.8 µg/mL)
O=C(OCc1ccccc1)c1coc(-c2ccccc2P(=O)(c2ccccc2)c2ccccc2)n1	inactive	61.5 (≈ 29.5 µg/mL)	61.8 (≈ 29.6 µg/mL)
CCCOc1ccc(C2=N[C@H](C(=O)OCc3ccccc3)CO2)cc1	inactive	22.4 (≈ 7.6 µg/mL)	2.97 (≈ 1.01 µg/mL)
Nc1ccc(C2=N[C@H](C(=O)OCc3ccccc3)CO2)cc1	inactive	26.8 (≈ 7.94 µg/mL)	25.4 (≈ 7.53 µg/mL)
COC(=O)[C@@H]1COC(c2ccc([N+](=O)[O-])cc2)=N1	inactive	> 128	> 128
COc1ccc(-c2nc(C(=O)OCc3ccccc3)co2)cc1OC	inactive	17.5 (≈ 5.94 µg/mL)	16 (≈ 5.43 µg/mL)
COC(=O)[C@@H]1COC(c2ccccc2OCc2ccccc2)=N1	inactive	> 128	118 (≈ 36.7 µg/mL)
CCCCOc1ccc(C2=N[C@H](C(=O)OCc3ccccc3)CO2)cc1	inactive	5.11 (≈ 1.81 µg/mL)	2.72 (≈ 0.961 µg/mL)
O=C(OCc1ccccc1)[C@@H]1COC(c2ccc([N+](=O)[O-])cc2OCc2ccccc2)=N1	inactive	4.86 (≈ 2.1 µg/mL)	15.6 (≈ 6.75 µg/mL)
O=C(OCc1ccccc1)[C@@H]1COC(c2ccncc2)=N1	inactive	81.3 (≈ 23 µg/mL)	55.6 (≈ 15.7 µg/mL)
O=C(OCc1ccccc1)c1coc(-c2ccccn2)n1	inactive	2.47 (≈ 0.692 µg/mL)	2 (≈ 0.561 µg/mL)

SMILES	Activity [1]	MIC [2] [µM]	MIC [3] [µM]
O=C(OCc1ccccc1)[C@@H]1COC(c2ccccn2)=N1	inactive	127 (≈ 35.9 µg/mL)	110 (≈ 31.1 µg/mL)
COc1ccc(C2=N[C@H](C(=O)OCc3ccccc3)CO2)cc1Cl	inactive	7.58 (≈ 2.62 µg/mL)	60.7 (≈ 21 µg/mL)
O=C(OCc1ccccc1)[C@@H]1COC(c2ccc(Cl)c(F)c2)=N1	inactive	6.49 (≈ 2.17 µg/mL)	52 (≈ 17.4 µg/mL)
O=C(OCc1ccccc1)c1coc(-c2ccc([N+](=O)[O-])cc2)n1	inactive	42.3 (≈ 13.7 µg/mL)	1.79 (≈ 0.58 µg/mL)
O=C(OCc1ccccc1)[C@@H]1COC(c2cccnc2)=N1	inactive	92.9 (≈ 26.2 µg/mL)	53.3 (≈ 15 µg/mL)
O=C(OCc1ccccc1)[C@@H]1COC(c2cncc(-c3ccccc3)c2)=N1	inactive	29.8 (≈ 10.7 µg/mL)	12.5 (≈ 4.48 µg/mL)
N#Cc1cccc(-c2nc(C(=O)OCc3ccccc3)co2)c1	inactive	60.5 (≈ 18.4 µg/mL)	25.2 (≈ 7.67 µg/mL)
COc1ccc(-c2nc(C(=O)OCc3ccccc3)c(C)o2)cc1	inactive	15.8 (≈ 5.11 µg/mL)	47.4 (≈ 15.3 µg/mL)
CC(C)Oc1ccc(C2=N[C@H](C(=O)OCc3ccccc3)CO2)cc1	inactive	14.9 (≈ 5.06 µg/mL)	3.2 (≈ 1.09 µg/mL)
Cc1ccc(-c2nc(C(=O)OCc3ccccc3)co2)cc1	inactive	7.68 (≈ 2.25 µg/mL)	12.8 (≈ 3.77 µg/mL)
O=C(OCc1ccccc1)[C@@H]1COC(c2cccnc2Sc2ccccc2)=N1	inactive	13.4 (≈ 5.23 µg/mL)	17.8 (≈ 6.95 µg/mL)
Cc1oc(-c2ccccc2O)nc1C(=O)O	inactive	> 128	> 128
COc1ccc(CNC(=O)c2coc(-c3cccc(Cl)c3)n2)cc1OC	inactive	48.1 (≈ 17.9 µg/mL)	118 (≈ 44 µg/mL)
Cc1ccc(-c2nc(C(=O)OCc3ccccc3)co2)cn1	inactive	10.2 (≈ 3 µg/mL)	3.01 (≈ 0.886 µg/mL)
O=C(OCc1ccccc1)c1coc(-c2cccnc2Oc2ccccc2)n1	inactive	91.4 (≈ 34 µg/mL)	6.86 (≈ 2.55 µg/mL)
COc1ccc(C2=N[C@H](C(=O)OCc3ccccc3)CO2)cc1OC	inactive	21.6 (≈ 7.37 µg/mL)	39 (≈ 13.3 µg/mL)
Cc1oc(-c2ccccc2)nc1C(=O)O	inactive	> 128	> 128
O=C(OCc1ccccc1)[C@@H]1COC(c2cccnc2Oc2ccccc2)=N1	inactive	> 128	58.8 (≈ 22 µg/mL)
CC(C)Oc1ccc(-c2nc(C(=O)OCc3ccccc3)co2)cc1	inactive	3.21 (≈ 1.08 µg/mL)	1.95 (≈ 0.658 µg/mL)
O=C(OCc1ccccc1)[C@@H]1COC(Cc2ccccc2)=N1	inactive	> 128	> 128
O=C(OCc1ccccc1)[C@@H]1COC(c2cnccn2)=N1	inactive	> 128	61.2 (≈ 17.3 µg/mL)
O=C(OCc1ccccc1)c1coc(-c2ccc(Cl)c(F)c2)n1	inactive	22.4 (≈ 7.43 µg/mL)	2.87 (≈ 0.952 µg/mL)
O=C(OCc1ccccc1)[C@@H]1COC(c2ccccc2Cl)=N1	inactive	15.2 (≈ 4.8 µg/mL)	49.9 (≈ 15.8 µg/mL)
